Measured values from US6770596B1, “Fused tricyclic compounds, process for their preparation, and herbicidal compositions containing them” (Ishihara Sangyo Kaisha Ltd., priority 2002, dated 2004).

Experiments:
Format in all cases: in vivo
[1] = tested on: lambsquarters (Chenopodium album, CHA); assay: Pre-emerge test, lambsquarters; conditions: 250 g ai/ha, 14 days after application, rating scale 0-100 (0 no damage, 100 complete death)
Method in brief: (§1)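 Seeds sown in sandy loam in 10 cm pots one day before pre-emergence spraying of acetone-dissolved compounds at 8–1000 g ai/ha (187 l/ha, track sprayer), greenhouse. Phytotoxicity rated visually 14 days after application on a 0–100 scale (0 no damage, 100 complete death).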

[2] = tested on: wheat (Triticum aestivum); assay: Pre-emerge test, crop damage wheat
Method in brief: (§2)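 Pots (10 cm, sandy loam mix) were seeded one day ahead of spraying. Test materials, dissolved in acetone, went on at 8–1000 g ai/ha in a 187 l/ha spray volume. Damage was scored 14 days later from 0 (none) to 100 (total kill).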

[3] = tested on: green foxtail (Setaria viridis, SEV); assay: Post-emerge test, green foxtail; conditions: 250 g ai/ha, 14 days after application, rating scale 0-100 (0 no damage, 100 complete death)
Method in brief: (§3)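 Post-emergence spray, 8-1000 g ai/ha in acetone at 187 l/ha with 0.25% v/v non-ionic surfactant, applied to 2-3 leaf plants. Pots of sandy loam mix, greenhouse. Visual 0-100 injury rating at 14 DAT.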

[4] = tested on: green foxtail (Setaria viridis, SEV); assay: Pre-emerge test, green foxtail; conditions: 250 g ai/ha, 14 days after application, rating scale 0-100 (0 no damage, 100 complete death)
Method in brief: as §1

[5] = tested on: lambsquarters (Chenopodium album, CHA); assay: Post-emerge test, lambsquarters; conditions: 250 g ai/ha, 14 days after application, rating scale 0-100 (0 no damage, 100 complete death)
Method in brief: as §3

[6] = tested on: common ragweed (Ambrosia artemisiifolia L., AML); assay: Post-emerge test, common ragweed; conditions: 250 g ai/ha, 14 days after application, rating scale 0-100 (0 no damage, 100 complete death)
Method in brief: as §3

[7] = tested on: soybean (Glycine max L., var. Pella 86, SOY); assay: Pre-emerge test, crop damage soybean
Method in brief: as §2

[8] = tested on: soybean (Glycine max L., var. Pella 86, SOY); assay: Post-emerge test, crop damage soybean
Method in brief: as §3

[9] = tested on: upland rice (Oryza sp., var.Tebonnet, RICE); assay: Pre-emerge test, crop damage upland rice
Method in brief: as §2

[10] = tested on: redroot pigweed (Amaranthus retroflexus, AMR); assay: Pre-emerge test, redroot pigweed; conditions: 250 g ai/ha, 14 days after application, rating scale 0-100 (0 no damage, 100 complete death)
Method in brief: as §1

[11] = tested on: field corn (Zea mays L., var. Dekalb 535, CORN); assay: Post-emerge test, crop damage field corn
Method in brief: as §3

[12] = tested on: ivyleaf morningglory (Ipomoea hederacea, IPH); assay: Post-emerge test, ivyleaf morningglory; conditions: 250 g ai/ha, 14 days after application, rating scale 0-100 (0 no damage, 100 complete death)
Method in brief: as §3

[13] = tested on: sicklepod (Cassia obtusifolia, CAO); assay: Pre-emerge test, sicklepod; conditions: 250 g ai/ha, 14 days after application, rating scale 0-100 (0 no damage, 100 complete death)
Method in brief: as §1

[14] = tested on: johnsongrass (Sorghum halepense, SOH); assay: Post-emerge test, johnsongrass; conditions: 250 g ai/ha, 14 days after application, rating scale 0-100 (0 no damage, 100 complete death)
Method in brief: as §3

[15] = tested on: wheat (Triticum aestivum); assay: Post-emerge test, crop damage wheat
Method in brief: as §3

[16] = tested on: large crabgrass (Digitaria sanguinalis, DIS); assay: Pre-emerge test, large crabgrass; conditions: 250 g ai/ha, 14 days after application, rating scale 0-100 (0 no damage, 100 complete death)
Method in brief: as §1

[17] = tested on: cocklebur (Xanthium strumariunt, XAS); assay: Post-emerge test, cocklebur; conditions: 250 g ai/ha, 14 days after application, rating scale 0-100 (0 no damage, 100 complete death)
Method in brief: as §3

[18] = tested on: barnyardgrass (Echinachloa crus-galli, ECC); assay: Post-emerge test, barnyardgrass; conditions: 250 g ai/ha, 14 days after application, rating scale 0-100 (0 no damage, 100 complete death)
Method in brief: as §3

[19] = tested on: barnyardgrass (Echinachloa crus-galli, ECC); assay: Pre-emerge test, barnyardgrass; conditions: 250 g ai/ha, 14 days after application, rating scale 0-100 (0 no damage, 100 complete death)
Method in brief: as §1

[20] = tested on: johnsongrass (Sorghum halepense, SOH); assay: Pre-emerge test, johnsongrass; conditions: 250 g ai/ha, 14 days after application, rating scale 0-100 (0 no damage, 100 complete death)
Method in brief: as §1

[21] = tested on: common ragweed (Ambrosia artemisiifolia L., AML); assay: Pre-emerge test, common ragweed; conditions: 250 g ai/ha, 14 days after application, rating scale 0-100 (0 no damage, 100 complete death)
Method in brief: as §1

[22] = tested on: field corn (Zea mays L., var. Dekalb 535, CORN); assay: Pre-emerge test, crop damage field corn
Method in brief: as §2

[23] = tested on: velvetleaf (Abutilon theophrasti, ABT); assay: Pre-emerge test, velvetleaf; conditions: 250 g ai/ha, 14 days after application, rating scale 0-100 (0 no damage, 100 complete death)
Method in brief: as §1

[24] = tested on: redroot pigweed (Amaranthus retroflexus, AMR); assay: Post-emerge test, redroot pigweed; conditions: 250 g ai/ha, 14 days after application, rating scale 0-100 (0 no damage, 100 complete death)
Method in brief: as §3

[25] = tested on: upland rice (Oryza sp., var.Tebonnet, RICE); assay: Post-emerge test, crop damage upland rice
Method in brief: as §3

[26] = tested on: velvetleaf (Abutilon theophrasti, ABT); assay: Post-emerge test, velvetleaf; conditions: 250 g ai/ha, 14 days after application, rating scale 0-100 (0 no damage, 100 complete death)
Method in brief: as §3

[27] = tested on: ivyleaf morningglory (Ipomoea hederacea, IPH); assay: Pre-emerge test, ivyleaf morningglory; conditions: 250 g ai/ha, 14 days after application, rating scale 0-100 (0 no damage, 100 complete death)
Method in brief: as §1

[28] = tested on: large crabgrass (Digitaria sanguinalis, DIS); assay: Post-emerge test, large crabgrass; conditions: 250 g ai/ha, 14 days after application, rating scale 0-100 (0 no damage, 100 complete death)
Method in brief: as §3

[29] = tested on: sicklepod (Cassia obtusifolia, CAO); assay: Post-emerge test, sicklepod; conditions: 250 g ai/ha, 14 days after application, rating scale 0-100 (0 no damage, 100 complete death)
Method in brief: as §3

[30] = tested on: cocklebur (Xanthium strumariunt, XAS); assay: Pre-emerge test, cocklebur; conditions: 250 g ai/ha, 14 days after application, rating scale 0-100 (0 no damage, 100 complete death)
Method in brief: as §1

[31] = pre-emerge, 250 g ai/ha, 14 days after application, rating scale 0-100 (0 no damage, 100 complete death)
[32] = post-emerge, 250 g ai/ha, 14 days after application, rating scale 0-100 (0 no damage, 100 complete death)
[33] = Triticum aestivum (wheat), in vivo, 14 days
[34] = var. Pella 86, Glycine max (soybean), in vivo, 14 days
[35] = var. Tebonnet, Oryza sp. (upland rice), in vivo, 14 days
[36] = var. Dekalb 535, Zea mays (field corn), in vivo, 14 days

SMILES | Pre-emerge Herbicidal Activity CHA (phytotoxicity rating) [1] | Post-emerge Herbicidal Activity SEV (phytotoxicity rating) [3] | Pre-emerge Herbicidal Activity SEV (phytotoxicity rating) [4] | Post-emerge Herbicidal Activity CHA (phytotoxicity rating) [5] | Post-emerge Herbicidal Activity AML (phytotoxicity rating) [6] | Pre-emerge Herbicidal Activity AMR (phytotoxicity rating) [10] | Post-emerge Herbicidal Activity IPH (phytotoxicity rating) [12] | Pre-emerge Herbicidal Activity CAO (phytotoxicity rating) [13] | Post-emerge Herbicidal Activity SOH (phytotoxicity rating) [14] | Pre-emerge Herbicidal Activity DIS (phytotoxicity rating) [16] | Post-emerge Herbicidal Activity XAS (phytotoxicity rating) [17] | Post-emerge Herbicidal Activity ECC (phytotoxicity rating) [18] | Pre-emerge Herbicidal Activity ECC (phytotoxicity rating) [19] | Pre-emerge Herbicidal Activity SOH (phytotoxicity rating) [20] | Pre-emerge Herbicidal Activity AML (phytotoxicity rating) [21] | Pre-emerge Herbicidal Activity ABT (phytotoxicity rating) [23] | Post-emerge Herbicidal Activity AMR (phytotoxicity rating) [24] | Post-emerge Herbicidal Activity ABT (phytotoxicity rating) [26] | Pre-emerge Herbicidal Activity IPH (phytotoxicity rating) [27] | Post-emerge Herbicidal Activity DIS (phytotoxicity rating) [28] | further results
Cn1nc(-c2c(F)cc3c4c2NC(=O)C(c2ccccc2)N4C(=O)CO3)c(Cl)c1C(F)(F)F (stereo not drawn) [1-21] | 100 | 50 | 98 | 99 | 75 | 100 | 75 | 60 | 0 | 99 | 80 | 25 | 75 | 85 | 98 | 100 | 95 | 75 | 95 | 0 | Pre-emerge crop damage WHEAT (phytotoxicity rating) [2, 31]: 20; Pre-emerge crop damage SOY (phytotoxicity rating) [7, 31]: 35; Post-emerge crop damage SOY (phytotoxicity rating) [8, 32]: 25; Pre-emerge crop damage RICE (phytotoxicity rating) [9, 31]: 0; Post-emerge crop damage CORN (phytotoxicity rating) [11, 32]: 10; Post-emerge crop damage WHEAT (phytotoxicity rating) [15, 32]: 45; Pre-emerge crop damage CORN (phytotoxicity rating) [22, 31]: 0; Post-emerge crop damage RICE (phytotoxicity rating) [25, 32]: 55; Post-emerge Herbicidal Activity CAO (phytotoxicity rating) [29]: 5; Pre-emerge Herbicidal Activity XAS (phytotoxicity rating) [30]: 40
Cn1nc(-c2c(F)cc3c4c2NC(=O)CN4C(=O)CO3)c(Cl)c1OC(F)F [1-25, 8-[4-Chloro-5-(difluoromethoxy)-1-methyl-1H-pyrazole-3-yl)-9-fluoro-5H-pyrazino[1,2,3-de]-1,4-benzoxazine-3,6(2H, 7H)-dione] | 100 | 100 | 100 | 100 | 99 | 100 | 100 | 100 | 60 | 100 | 100 | 95 | 100 | 100 | 100 | 100 | 100 | 100 | 100 | 60 | Pre-emerge crop damage WHEAT (phytotoxicity rating) [2, 33]: 85; Pre-emerge crop damage SOY (phytotoxicity rating) [7, 34]: 40; Post-emerge crop damage SOY (phytotoxicity rating) [8, 34]: 100; Pre-emerge crop damage RICE (phytotoxicity rating) [9, 35]: 85; Post-emerge crop damage CORN (phytotoxicity rating) [11, 36]: 35; Post-emerge crop damage WHEAT (phytotoxicity rating) [15, 33]: 60; Pre-emerge crop damage CORN (phytotoxicity rating) [22, 36]: 99; Post-emerge crop damage RICE (phytotoxicity rating) [25, 35]: 100; Post-emerge Herbicidal Activity CAO (phytotoxicity rating) [29]: 100; Pre-emerge Herbicidal Activity XAS (phytotoxicity rating) [30]: 95
CC1C(=O)Nc2c(-c3nn(C)c(OC(F)F)c3Cl)c(F)cc3c2N1C(=O)CO3 (stereo not drawn) [1-26, 8-[4-Chloro-5-(difluoromethoxy)-1-methyl-1H-pyrazole-3-yl)-9-fluoro-5-methyl-5H-pyrazino[1,2,3-de]-1,4-benzoxazine-3,6(2H, 7H)-dione] | 100 | 100 | 100 | 100 | 99 | 100 | 100 | 99 | 80 | 100 | 100 | 99 | 100 | 100 | 100 | 100 | 100 | 100 | 100 | 40 | Pre-emerge crop damage WHEAT (phytotoxicity rating) [2, 33]: 98; Pre-emerge crop damage SOY (phytotoxicity rating) [7, 34]: 98; Post-emerge crop damage SOY (phytotoxicity rating) [8, 34]: 100; Pre-emerge crop damage RICE (phytotoxicity rating) [9, 35]: 100; Post-emerge crop damage CORN (phytotoxicity rating) [11, 36]: 40; Post-emerge crop damage WHEAT (phytotoxicity rating) [15, 33]: 60; Pre-emerge crop damage CORN (phytotoxicity rating) [22, 36]: 100; Post-emerge crop damage RICE (phytotoxicity rating) [25, 35]: 90; Post-emerge Herbicidal Activity CAO (phytotoxicity rating) [29]: 100; Pre-emerge Herbicidal Activity XAS (phytotoxicity rating) [30]: 99
Cn1nc(-c2c(F)cc3c4c2NC(=O)C(C)(C)N4C(=O)CO3)c(Cl)c1OC(F)F [1-27] | 100 | 100 | 100 | 100 | 98 | 100 | 100 | 100 | 75 | 100 | 100 | 100 | 100 | 100 | 100 | 100 | 100 | 100 | 100 | 60 | Pre-emerge crop damage WHEAT (phytotoxicity rating) [2, 31]: 80; Pre-emerge crop damage SOY (phytotoxicity rating) [7, 31]: 35; Post-emerge crop damage SOY (phytotoxicity rating) [8, 32]: 100; Pre-emerge crop damage RICE (phytotoxicity rating) [9, 31]: 85; Post-emerge crop damage CORN (phytotoxicity rating) [11, 32]: 60; Post-emerge crop damage WHEAT (phytotoxicity rating) [15, 32]: 75; Pre-emerge crop damage CORN (phytotoxicity rating) [22, 31]: 55; Post-emerge crop damage RICE (phytotoxicity rating) [25, 32]: 90; Post-emerge Herbicidal Activity CAO (phytotoxicity rating) [29]: 100; Pre-emerge Herbicidal Activity XAS (phytotoxicity rating) [30]: 80
